Experimental data reported in patent US20080207725A1, “Phenyl-Pyrazole Derivatives as Non-Steroidal Glucocorticoid Receptor Ligands” (Glaxo Group Limited, a corporation, priority 2005, published 2008).

Tested on: NFkB activity
Experiment: Glucocorticoid mediated transrepression of NFkB activity (A549 ELAM promoter SPAP reporter, TNFα stimulated)
Assay type: cell-based
Details: Human A549 lung epithelial cells, 3 ng/ml human recombinant TNFα, 16 hours; read-out: pEC50, transrepression of NFkB activity (converted)
From the text: Human A549 lung epithelial cells were engineered to contain a secreted placental alkaline phosphatase gene under the control of the distal region of the NFkB dependent ELAM promoter as previously described in Ray, K. P., Farrow, S., Daly, M., Talabot, F. and Searle, N. “Induction of the E-selectin promoter by interleukin 1 and tumour necrosis factor alpha, and inhibition by glucocorticoids” Biochemical Journal (1997) 328: 707-15.
Compounds were solvated and diluted in DMSO, and transferred directly into assay plates such that the final concentration of DMSO was 0.7%. Following the addition of cells (40K per well), plates were incubated for 1 hour prior to the addition of 3 ng/ml human recombinant TNFα. Following continued incubation for 16 hours, alkaline phosphatase activity was determined by measuring the change in optical density at 405 nm with time following the addition of 0.7 volumes of assay buffer (1 mg/ml p-nitrophenylphosphate dissolved in 1M diethanolamine, 0.28M NaCl, 0.5 mM MgCl2). Dose response curves were constructed from which EC50 values were estimated.

Row | SMILES | EC50 [nM]
1 | CC(C)(C[C@@](O)(CNC(=O)c1cnn(-c2ccc(F)cc2)c1N)C(F)(F)F)c1cccc2c1OCC2 [Example 13, (2R)-5-Amino-N-[4-(2,3-dihydro-1-benzofuran-7-yl)-2-hydroxy-4-methyl-2-(trifluoromethyl)pentyl]-1-(4-fluorophenyl)-1H-pyrazole-4-carboxamide] | < 3.16
2 | CC(C)(C[C@@](O)(CNC(=O)c1cnn(-c2ccccc2F)c1N)C(F)(F)F)c1cc(F)ccc1O [Example 8, (2R)-5-Amino-N-[4-(5-fluoro-2-hydroxyphenyl)-2-hydroxy-4-methyl-2-(trifluoromethyl)pentyl]-1-(2-fluorophenyl)-1H-pyrazole-4-carboxamide] | < 3.16
3 | COc1ccc(F)cc1C(C)(C)C[C@@](O)(CNC(=O)c1cnn(-c2ccc(F)cc2F)c1N)C(F)(F)F [Example 4, (2R)-5-Amino-1-(2,4-difluorophenyl)-N-[4-[5-fluoro-2-(methyloxy)phenyl]-2-hydroxy-4-methyl-2-(trifluoromethyl)pentyl]-1H-pyrazole-4-carboxamide] | < 3.16
4 | CC(C)(C[C@@](O)(CNC(=O)c1cnn(-c2ccccc2)c1N)C(F)(F)F)c1cccc2c1OCC2 [Example 1, (2R)-5-Amino-N-[4-(2,3-dihydro-1-benzofuran-7-yl)-2-hydroxy-4-methyl-2-(trifluoromethyl)pentyl]-1-phenyl-1H-pyrazole-4-carboxamide] | < 3.16
5 | COc1ccc(F)cc1C(C)(C)C[C@@](O)(CNC(=O)c1cnn(-c2ccccc2F)c1N)C(F)(F)F [Example 3, (2R)-5-Amino-N-[4-[5-fluoro-2-(methyloxy)phenyl]-2-hydroxy-4-methyl-2-(trifluoromethyl)pentyl]-1-(2-fluorophenyl)-1H-pyrazole-4-carboxamide] | < 3.16
6 | CC(C)(C[C@@](O)(CNC(=O)c1cnn(-c2ccc(F)cc2F)c1N)C(F)(F)F)c1cc(F)ccc1O [Example 9, (2R)-5-Amino-1-(2,4-difluorophenyl)-N-[4-(5-fluoro-2-hydroxyphenyl)-2-hydroxy-4-methyl-2-(trifluoromethyl)pentyl]-1H-pyrazole-4-carboxamide] | < 3.16
7 | CC(C)(C[C@@](O)(CNC(=O)c1cnn(-c2ccc(F)cc2F)c1N)C(F)(F)F)c1cccc2c1OCC2 [Example 14, (2R)-5-Amino-1-(2,4-difluorophenyl)-N-[4-(2,3-dihydro-1-benzofuran-7-yl)-2-hydroxy-4-methyl-2-(trifluoromethyl)pentyl]-1H-pyrazole-4-carboxamide] | < 3.16
8 | COc1ccc(F)cc1C(C)(C)C[C@@](O)(CNC(=O)c1cnn(-c2ccc(F)cc2)c1N)C(F)(F)F [Example 2, (2R)-5-Amino-N-[4-[5-fluoro-2-(methyloxy)phenyl]-2-hydroxy-4-methyl-2-(trifluoromethyl)pentyl]-1-(4-fluorophenyl)-1H-pyrazole-4-carboxamide] | < 3.16
9 | COc1ccc(F)cc1C(C)(C)C[C@@](O)(CNC(=O)c1cnn(-c2ccccc2)c1N)C(F)(F)F [Example 6, (2R)-5-Amino-N-[4-[5-fluoro-2-(methyloxy)phenyl]-2-hydroxy-4-methyl-2-(trifluoromethyl)pentyl]-1-phenyl-1H-pyrazole-4-carboxamide] | < 3.16
10 | CC(C)(C[C@@](O)(CNC(=O)c1cnn(-c2ccc(F)cc2)c1N)C(F)(F)F)c1cc(F)ccc1O [Example 7, (2R)-5-Amino-N-[4-(5-fluoro-2-hydroxyphenyl)-2-hydroxy-4-methyl-2-(trifluoromethyl)pentyl]-1-(4-fluorophenyl)-1H-pyrazole-4-carboxamide] | < 3.16
11 | CC(C)(C[C@@](O)(CNC(=O)c1cnn(-c2ccc(Cl)cc2)c1N)C(F)(F)F)c1cccc2c1OCC2 [Example 15, (2R)-5-Amino-1-(4-chlorophenyl)-N-[4-(2,3-dihydro-1-benzofuran-7-yl)-2-hydroxy-4-methyl-2-(trifluoromethyl)Pentyl]-1H-pyrazole-4-carboxamide] | < 3.16
12 | COc1ccc(F)cc1C(C)(C)C[C@@](O)(CNC(=O)c1cnn(-c2ccc(Cl)cc2)c1N)C(F)(F)F [Example 5, (2R)-5-Amino-1-(4-chlorophenyl)-N-[4-[5-fluoro-2-(methyloxy)phenyl]-2-hydroxy-4-methyl-2-(trifluoromethyl)pentyl]-1H-pyrazole-4-carboxamide] | < 3.16
13 | CC(C)(C[C@@](O)(CNC(=O)c1cnn(-c2ccccc2)c1N)C(F)(F)F)c1cc(F)ccc1O [Example 11, (2R)-5-Amino-N-[4-(5-fluoro-2-hydroxyphenyl)-2-hydroxy-4-methyl-2-(trifluoromethyl)pentyl]-1-phenyl-1H-pyrazole-4-carboxamide] | < 3.16
14 | CC(C)(C[C@@](O)(CNC(=O)c1cnn(-c2ccc(Cl)cc2)c1N)C(F)(F)F)c1cc(F)ccc1O [Example 10, (2R)-5-Amino-1-(4-chlorophenyl)-N-[4-(5-fluoro-2-hydroxyphenyl)-2-hydroxy-4-methyl-2-(trifluoromethyl)pentyl]-1H-pyrazole-4-carboxamide] | < 3.16
15 | CC(C)(C[C@@](O)(CNC(=O)c1cnn(-c2ccccc2F)c1N)C(F)(F)F)c1cccc2c1OCC2 [Example 12, (2R)-5-Amino-N-[4-(2,3-dihydro-1-benzofuran-7-yl)-2-hydroxy-4-methyl-2-(trifluoromethyl)pentyl]-1-(2-fluorophenyl)-1H-pyrazole-4-carboxamide] | < 3.16
